From US4749710A, “Immunosuppressive agents” (priority 1985, dated 1988)
Where two headings read alike, the source gives them in different places.

Experiments:
[1] = test system: murine cytotoxic T-lymphocyte responses; test: cells; type: cell-based; conditions: for CTL activity (% specific ^51 Cr release): 90:1 effector to target
Text: Immunosuppressive Activity of Vitamin D compounds on cytotoxic T lymphocyte Responses-General Test Description
Cytotoxic thymus-derived lymphocytes (CTL) constitute an important aspect of immune function and, as a result, play a key role in the rejection of grafted cells, tissues and organs. It is, therefore, essential to suppress CTL generation in a clinical situation in which CTL function is antithetical to the desired outcome as, for example, in transplantation. Cytotoxic T-lymphocytes have been studied for several years by many investigators and methods to evaluate CTL responses in vitro are well established.
As described below, CTL responses as affected by Vitamin D derivatives, were studied in vitro using cells from lab animals and human volunteers. Cytotoxic T-lymphocytes were generated from responder lymphoid cells in tissue culture medium during an incubation period of 6 days by exposure to foreign stimulator cells, i.e. from a genetically disparate source. A portion of the resultant effector cells were CTL capable of killing fresh cells related to the stimulator cells employed in the 6 day culture. To detect killing of cells by CTL, fresh target cells were incubated in excess ^51 chromium (as sodium chromate) until they were extensively labelled. Since target cells will retain the internalized radioisotope as long as they are viable but release the label when they are killed, CTL activity was assessed by quantitating the chromium released from target cells after a 4 or 18 hour incubation with CTL. Immunosuppression produced by Vitamin D derivatives was gauged as the ability to inhibit CTL responses during the initial incubation period relative to control cultures to which no Vitamin D derivative was added.
Female BALB/c By and C57BL/6 mice were obtained from Jackson Laboratories and were used between 8 and 10 weeks of age. Mice were given food and water ad libitum and were kept in a 12 hour light and 12 hour dark cycle.
For murine cultures, minimal essential medium with Hank's salts was supplemented to 1 millimolar with sodium pyruvate, to 0.1 millimolar with nonessential amino acids, to 2 millimolar with 1-glutamine, to 10% (v/v) with heat-inactivated fetal bovine serum, to 50 micrograms per ml with gentamicin, and to 1000 milligrams per liter with sodium bicarbonate and was used as tissue culture medium.
Stock solutions of Vitamin D derivatives were made in argon-saturated ethanol at a final concentration of 1×10^-2 molar, were covered with argon before sealing and were stored at -20° C. in the dark. Reduced lighting conditions were always employed when working with compounds. Compounds were diluted in tissue culture medium to 1×10^-4 molar and all subsequent dilutions were done in tissue culture medium containing 1% v/v ethanol. The final dilution into culture vessels was 1:10 thus keeping the vehicle concentration constant at 0.1% while varying the concentration of compound as tabulated in the results. For purposes of control, mixed leukocyte cultures were incubated in medium only (medium control) or in medium containing a final concentration of 0.1% ethanol (vehicle control).
Murine cytotoxic T-lymphocytes were generated in mixed leukocyte cultures by known methods. Specifically, single cell suspensions were prepared from spleens by gentle disruption in balanced salt solution (Hanks' balanced salt solution supplemented to 10%, v/v, with fetal bovine serum). After sedimentation on ice to remove particulate debris, cell suspensions were centrifuged at 400xg and were resuspended in fresh balanced salt solution. Cells to be used as stimulator cells were precluded from proliferating or generating cytotoxic T-lymphocytes by exposure to 1000 rads of gamma irradiation using a ^137 cesium source. […]

[2] = test system: human cytotoxic T-lymphocyte responses; test: Inhibition of human CTL responses (mixed leukocyte-tumor cultures, HT-144 melanoma, ^51 Cr release); type: cell-based; conditions: for inhibition at 1 µM / inhibition at 0.1 µM: Homo sapiens, T-lymphocyte, read-out: Inhibition of CTL activity (%)
Description: Human cells for the tests described below were taken from four donors designated I, II, III, and IV in the tables below.
Stock solutions of Vitamin D derivatives were prepared as they were prepared above in the murine tests.
Human cytotoxic T-lymphocytes were generated in mixed leukocyte-tumor cultures by known methods. Specifically, blood from normal volunteer donors was drawn into heparinized syringes, diluted 1:1 with calcium-magnesium free Hanks' balanced salt solution (Ca-Mg free HBSS), and layered over lymphocyte separation medium (Litton Bionetics, Kensington, MD). After centrifugation at 500xg for 20-30 min at room temperature, peripheral blood mononuclear cells were harvested from the interface. The peripheral blood mononuclear leukocytes were centrifuged and resuspended in Ca-Mg free HBSS and were subsequently separated from platelets by centrifugation at 500xg through a solution of 20% sucrose and 1% human AB serum in Ca-Mg free HBSS. The cells were washed once and finally resuspended in tissue culture medium. […] Cells to be used as stimulator cells in mixed leukocyte-tumor cultures were irradiated with 10,000 rads of gamma irradiation to preclude proliferation in culture. Mixed leukocyte-tumor cell cultures were established in 16 mm tissue culture wells at a final volume of 1.5 ml per well containing 2×10^6 peripheral blood mononuclear leukocytes and 5×10^4 irradiation-inactivated stimulator cells. In order to prevent the generation of nonspecific cytotoxic cells in these cultures, hydrocortisone sodium succinate was added to each culture at a final concentration of 1×10^-5 M. Mixed leukocyte-tumor cultures were incubated for 6 days in a humidified atmosphere of 5% CO2 in air.
Labelled target cells were washed free of unbound isotope by 3 serial washes in tissue culture medium and were finally resuspended at a concentration of 5×10^4 cells per ml.
Assays of human cytotoxic T-lymphocytes were done by known methods. Specifically, one-tenth ml aliquots of ^51 Cr-labelled target cell suspension were added to "half area" microtest plates and were incubated at 37° C. for 18 hours in a humidified atmosphere of 5% CO2 in air to permit the cells to adhere and spread on the floor of each well. Culture medium was then aspirated from each well and was replaced with 0.1 ml of tissue culture medium containing cells harvested from mixed leukocyte-tumor cultures which had been processed as described for murine mixed leukocute cultures, above. Control wells for measurement of spontaneous ^51 Cr release received medium without effector cells and wells for measurement of maximal releasable ^51 Cr received 0.1 ml of 2% sodium dodecyl sulfate in distilled water. After overnight incubation at 37° in a humidified atmosphere of 5% CO2 in air, 0.05 ml of cell-free supernatant was withdrawn from each well and the amount of released ^51 Cr was quantitated using a gamma spectrometer. The percentage of specific ^51 Cr release (CTL activity) and the percent inhibition of CTL activity were calculated with the same formulas used above for the murine CTL assay.
Tests conducted on human cytotoxic T-lymphocyte responses are reported as the mean±standard error of the mean from triplicate ^51 Cr release determinations on pooled cells from duplicate control or test cultures.

[3] = Test 1 (hexafluoro compounds), donor I, 1 × 10^-6 molar, 0.1% ethanol, effector to target 8:1
[4] = Test 1 (hexafluoro compounds), donor I, 1 × 10^-7 molar, 0.1% ethanol, effector to target 8:1

| SMILES | inhibition at 10 µM ([1]; Mus musculus, T-lymphocyte, Table I, 1 × 10^-5 molar, vs vehicle control, read-out: Inhibition of CTL activity (%)) [%] | inhibition at 1 µM ([1]; Mus musculus, T-lymphocyte, Table I, 1 × 10^-6 molar, vs vehicle control, read-out: Inhibition of CTL activity (%)) [%] | inhibition at 0.1 µM ([1]; Mus musculus, T-lymphocyte, Table I, 1 × 10^-7 molar, vs vehicle control, read-out: Inhibition of CTL activity (%)) [%] | inhibition at 0.01 µM ([1]; Mus musculus, T-lymphocyte, Table I, 1 × 10^-8 molar, vs vehicle control, read-out: Inhibition of CTL activity (%)) [%] | inhibition at 0.001 µM ([1]; Mus musculus, T-lymphocyte, Table I, 1 × 10^-9 molar, vs vehicle control, read-out: Inhibition of CTL activity (%)) [%] | inhibition at 0.0001 µM ([1]; Mus musculus, T-lymphocyte, Table I, 1 × 10^-10 molar, vs vehicle control, read-out: Inhibition of CTL activity (%)) [%] | CTL activity (% specific ^51 Cr release) ([1]; Table I, 1 × 10^-5 molar) | CTL activity (% specific ^51 Cr release) ([1]; Table I, 1 × 10^-6 molar) | CTL activity (% specific ^51 Cr release) ([1]; Table I, 1 × 10^-7 molar) | CTL activity (% specific ^51 Cr release) ([1]; Table I, 1 × 10^-8 molar) | CTL activity (% specific ^51 Cr release) ([1]; Table I, 1 × 10^-9 molar) | CTL activity (% specific ^51 Cr release) ([1]; Table I, 1 × 10^-10 molar) | suppression of murine cytotoxic T-lymphocyte responses (in words) ([1]; in vitro) | inhibition at 1 µM [2, 3] [%] | inhibition at 0.1 µM [2, 4] [%] | CTL activity (% specific ^51 Cr release) [2, 3] [% specific ^51 Cr release] | CTL activity (% specific ^51 Cr release) [2, 4] [% specific ^51 Cr release] | inhibition at 0.1 µM [2] [%] | inhibition at 1 µM [2] [%] |
| --- | --- | --- | --- | --- | --- | --- | --- | --- | --- | --- | --- | --- | --- | --- | --- | --- | --- | --- | --- |
| C=C1/C(=C\C=C2/CCC[C@]3(C)[C@@H]([C@H](C)CC4CC(C)(O)C(=O)O4)CC[C@@H]23)C[C@@H](O)C[C@@H]1O (stereo partly drawn) [1α,25-(OH)2 --D3-(26,23)-lactone, 1α,25-Dihydroxycholecalciferol-26,23-lactone] | 80 | 63 | 37 | 9 | 3 | 7 | 11 | 20 | 34 | 49 | 52 | 50 | suppress murine cytotoxic T-lymphocyte responses |  |  |  |  |  |  |
| C=C1/C(=C\C=C2/CCC[C@]3(C)[C@@H]([C@H](C)C=CCC(O)(C(F)(F)F)C(F)(F)F)CC[C@@H]23)C[C@@H](O)C[C@@H]1O [26,26,26,27,27,27-Hexafluoro-1α,25-dihydroxy-Δ^22-cholecalciferol] |  |  |  |  |  |  |  |  |  |  |  |  |  | 80 | 64 | 13 ± 0.1 | 23 ± 2 |  |  |
| C=C1/C(=C\C=C2/CCC[C@]3(C)[C@@H]([C@H](C)CCCC(O)(C(F)(F)F)C(F)(F)F)CC[C@@H]23)C[C@@H](O)C[C@@H]1O [26,26,26,27,27,27-hexafluoro-1α,25-dihydroxycholecalciferol] |  |  |  |  |  |  |  |  |  |  |  |  |  |  |  | 15 ± 2 | 23 ± 3 | 64 | 77 |
